From PMC9144480 (Pharmaceuticals, 2022) come the findings set out here.

Read-outs that look alike come from different tables or passages of the source.

Assay [1] relates to pseudovirus bearing SARS-CoV-2 S protein, delta (B.1.617.2) variant. The assay can be described thus: microbe, parasite or virus in culture. Type of assay: cell-based. As to conditions: HEK-293T, read-out: IC50, inhibition of cell entry of pseudovirus (delta var.).
Assay [2] deals with SARS-CoV-2 spike protein pseudotyped VSV-ΔG. The assay can be described thus: microbe, parasite or virus in culture. The class given is cell-based.
The mark [3] stands for this setting: Severe acute respiratory syndrome coronavirus 2, Vero C1008, read-out: IC50, inhibition of VSV-ΔG pseudovirus entry.

`CCN(CCO)CCCC(C)Nc1ccnc2cc(Cl)ccc12` (stereo not shown) [HCQ, hydroxychloroquine]: the IC50 in assay [1] came to 75.1 µM. As for `CN(C)c1ccc2nc3ccc(=[N+](C)C)cc-3sc2c1` [MeBlu, methylene blue], the IC50 in assay [1] was determined as 4.7 µM; in assay [2] (setting [3]) it was 2.5 µM; in assay [2] (read-out: IC50, inhibition of VSV-ΔG pseudovirus entry), 2.46 µM. Take `Nc1c(/N=N/c2ccc([N+](=O)[O-])cc2)c(S(=O)(=O)O)cc2cc(S(=O)(=O)O)c(/N=N/c3ccccc3)c(O)c12` [NBlBk, naphthol blue black]: in assay [1], the IC50 turned out to be 388 µM. With `O=S(=O)(O)c1ccc(N=Nc2c(O)ccc3cc(S(=O)(=O)O)ccc23)cc1` [SY(FD&C#6), sunset yellow FCF], the figures for the IC50 in assay [1] and in assay [2] (setting [3]) were greater than 500 µM and greater than 250 µM, respectively.
